According to US20220362386A1, “LIQUID COMPOSITIONS COMPRISING A LEVODOPA AMINO ACID CONJUGATE AND USES THEREOF” (NeuroDerm, Ltd., priority 2019, published 2022):
Structures can show the parent of a compound that is named as a salt. Where two headings read alike, the source gives them in different places. Non-standard residues stand in square brackets, D forms with d. Residues, ends and D or L forms follow the SMILES beside them. Dopa = N[C@@H](Cc1ccc(O)c(O)c1)C(=O)O

Tests used:
P-gp = test: In-vitro absorption, Caco-2 A-B permeability; format: in vitro ADME, human; conditions: human, Caco-2, pH 7.4, with verapamil 100 μM on both the A and B sides, Caco-2 A-B, in the presence of verapamil
Method: (§1) Conditions may be adjusted when necessary.
(§2) D denotes donor and R is receiver. […] V is the volume of the donor or receiver.
(§3) The test was performed with and without verapamil, which is a permeation inhibitor, and the results are presented in Tables 22 (without verapamil) and 34 (with verapamil).

[1] = In-vitro absorption, Caco-2 A-B permeability; format: in vitro ADME, human; conditions: human, Caco-2, pH 7.4, Caco-2 A-B, without verapamil; for Papp A→B at 60 min, 10 μM: 1.0E−05M
Method: as §1, §2, §3

[2] = Protein binding, solid phase extraction (SPE) method; format: in vitro ADME, human; conditions: human, human plasma, 1.0E−05M, SPE sample preparation
Method: (§4) A solid phase extraction (SPE) method was used to prepare samples for several compounds in the plasma protein binding assay. The following SPE protocols were followed:
(§5) Sorbent: Waters Oasis MCX 96—well MicroElution Plate—Cat #186001830BA Sample: 200 μL of plasma spiked at 10 μM with test compound. Sample was diluted 1:1 with 4% phosphoric acid in water and mixed for 15 minutes 1) Place Oasis plate on vacuum manifold and set vacuum to 5″ Hg; 2) Condition with 200 μL methanol; 3) Equilibrate with 200 μL water; 4) Load dilute plasma sample; 5) Wash with 200 μL 2% formic acid in water; 6) Wash with 400 μL methanol; and 7) Elute with 100 μL 5% NH4OH in methanol.
as §5, with “MAX 96-well” for “MCX 96—well”, “plate—Cat #186001829” for “Plate—Cat #186001830BA”, “5% NH4OH” for “2% formic acid”, “2% formic acid” for “5% NH4OH”

human plasma = test: as above; format: in vitro ADME; conditions: 1.0E−05M; SPE sample preparation
Method: as §4, §5
as §5, with “MAX 96-well” for “MCX 96—well”, “plate—Cat #186001829” for “Plate—Cat #186001830BA”, “5% NH4OH” for “2% formic acid”, “2% formic acid” for “5% NH4OH”

[3] = read-out: Percent Recovery Mean

recovery at 60 min, 10 μM (P-gp; read-out: Percent Recovery 1st) [%]	recovery at 60 min, 10 μM (P-gp; read-out: Percent Recovery 2nd) [%]	recovery at 60 min, 10 μM (P-gp; [3]) [%]	Papp A→B at 60 min, 10 μM ([1]; read-out: Permeability 1st) [×10⁻⁶ cm/s]	Papp A→B at 60 min, 10 μM ([1]; read-out: Permeability 2nd) [×10⁻⁶ cm/s]	Papp A→B at 60 min, 10 μM ([1]; read-out: Permeability Mean) [×10⁻⁶ cm/s]	recovery at 60 min, 10 μM ([1]; read-out: Percent Recovery 1st) [%]	recovery at 60 min, 10 μM ([1]; read-out: Percent Recovery 2nd) [%]	recovery at 60 min, 10 μM [1, 3] [%]	recovery at 10 μM ([2]; read-out: % Recovery 1st) [%]	recovery at 10 μM ([2]; read-out: % Recovery 2nd) [%]	recovery at 10 μM ([2]; read-out: % Recovery Mean) [%]	% Protein Bound 1st (human plasma) [%]	% Protein Bound Mean (human plasma) [%]	SMILES	% Protein Bound 2nd (human plasma) [%]
65	62	63	0.6	0.47	0.5	62	78	70	–	–	–	–	–	NC(=O)C[C@H](NC(=O)[C@@H](N)Cc1ccc(O)c(O)c1)C(=O)O [LD-Asn TFA salt, Levodopa Asparagine TFA Salt] (H-[Dopa]-Asn-OH)	–
89	87	88	20.2	17.8	19	86	91	89	39	46	43	18.7	18.7	N[C@@H](CSC[C@H](NC(=O)[C@@H](N)Cc1ccc(O)c(O)c1)C(=O)O)C(=O)O (single isomer, unassigned; peak 2) [LD-LA2 TFA salt, Levodopa Lanthionine Peak 2 TFA Salt]	–
63	41	52	1.15	1.25	1.2	37	22	29	59	78	68	30.4	25	N[C@@H](Cc1ccc(O)c(O)c1)C(=O)O [LD (control), L-3,4-dihydroxyphenylalanine, reference compound]	20.2

SMILES	recovery at 60 min, 10 μM (P-gp; read-out: Percent Recovery 1st) [%]	recovery at 60 min, 10 μM (P-gp; read-out: Percent Recovery 2nd) [%]	recovery at 60 min, 10 μM (P-gp; [3]) [%]	Papp A→B at 60 min, 10 μM ([1]; read-out: Permeability 1st) [×10⁻⁶ cm/s]	Papp A→B at 60 min, 10 μM ([1]; read-out: Permeability 2nd) [×10⁻⁶ cm/s]	Papp A→B at 60 min, 10 μM ([1]; read-out: Permeability Mean) [×10⁻⁶ cm/s]	recovery at 60 min, 10 μM ([1]; read-out: Percent Recovery 1st) [%]	recovery at 60 min, 10 μM ([1]; read-out: Percent Recovery 2nd) [%]	recovery at 60 min, 10 μM [1, 3] [%]	recovery at 10 μM ([2]; read-out: % Recovery 1st) [%]	recovery at 10 μM ([2]; read-out: % Recovery 2nd) [%]	recovery at 10 μM ([2]; read-out: % Recovery Mean) [%]	% Protein Bound 1st (human plasma) [%]	% Protein Bound Mean (human plasma) [%]	% Protein Bound 2nd (human plasma) [%]
N[C@@H](Cc1ccc(O)c(O)c1)C(=O)N[C@@H](Cc1ccc(O)cc1)C(=O)O [LD-Tyr TFA salt, Levodopa Tyrosine TFA Salt] (H-[Dopa]-Tyr-OH)	40	39	40	0.05	0.04	–	45	39	42	64	72	68	11	22	32.5
